Experimental data as given in PMC8445441, “Elucidating the mechanism by which synthetic helper peptides sensitize Pseudomonas aeruginosa to multiple antibiotics” (PLoS Pathogens, 2021).
Where two headings read alike, the source gives them in different places.

What was measured:
P. aeruginosa AUMC-Pa-2 = conditions: strain AUMC-Pa-2; antibiotic + D-11 (MICb/MICbc 64/4)
Experimental: (§1) The MIC tests were performed in triplicate using broth microdilution in accordance with Clinical and Laboratory Standards Institute (CLSI) recommendations (http://iacld.ir/DL/public/CLSI-2018-M100-S28.pdf). Briefly, drugs were two-fold diluted in MHB and mixed with an equal volume of bacterial suspensions containing approximately 1 × 10^6 CFU/mL in 96-well microliter plate. After 18 h incubation at 37 °C, the MIC values were defined as the lowest concentrations of antibiotics with no visible growth of bacteria. […] Otherwise, 1/4 MIC of the peptide was used in the combination. […] If needed, membrane compounds PG, PE, PC, CL or LPS, or membrane stabilizers MgCl2 or CaCl2, or efflux pumps inhibitor PAβN were added to the broth medium to clarify the effect of other substances on the synergy between peptide and antibiotics. All the tests were performed in triplicate.
(§2) The fractional inhibitory concentration (FIC) indices were calculated using the previously described formula FICI = FICa + FICb = MICac/MICa + MICbc/MICb. The FICI was interpreted according to EUCAST [65] as follows: synergistic, FICI≤0.5; additive, 0.5<FICI≤1; indifferent, 1<FICI<2; antagonistic, FICI ≥2. For the FICI calculations, twice the highest concentration tested was used in the cases where the MIC was not reached.

P. aeruginosa AUMC-Pa-1 = conditions: strain AUMC-Pa-1; antibiotic + D-11 (MICb/MICbc 128/4)
Experimental: as §1, §2

P. aeruginosa PAO1 = assay: microbe, parasite or virus in culture; conditions: for FICI / MICac: the MIC for the antibiotic in the combination: S3 Table, PAO1
How it was run: (§3)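 Values are lowest concentrations showing no visible growth after 18 h at 37 °C. Drugs were serially halved in MHB and combined with equal volumes of a roughly 1 × 10^6 CFU/mL suspension, following CLSI guidance, in triplicate.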

P. aeruginosa AUMC-Pa-4 = assay: microbe, parasite or virus in culture
How it was run: as §3

P. aeruginosa AUMC-Pa-3 = assay: microbe, parasite or virus in culture
How it was run: as §3

P. aeruginosa AUMC-Pa-6 = assay: microbe, parasite or virus in culture
How it was run: as §3

P. aeruginosa AUMC-Pa-5 = assay: microbe, parasite or virus in culture; conditions: strain AUMC-Pa-5
How it was run: as §3

[1] = system: clinical P. aeruginosa isolates; assay: microbe, parasite or virus in culture; conditions: Pseudomonas aeruginosa, 18 h
How it was run: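 MIC is the lowest drug concentration showing no visible growth after 18 h at 37 °C. Two-fold dilutions in MHB were combined with an equal volume of bacterial suspension (about 1 × 10^6 CFU/mL), following CLSI broth microdilution, in triplicate.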

P. aeruginosa PA14 = assay: microbe, parasite or virus in culture; parameters: MICa: MIC of the antibiotic / MICac: MIC of the antibiotic in the combination: unit not given beside the values; conditions: strain PA14
Experimental: as §1, §2

P. aeruginosa NR-31040 = assay: microbe, parasite or virus in culture; parameters: MICa: MIC of the antibiotic / MICac: MIC of the antibiotic in the combination: unit not given beside the values; conditions: strain NR-31040
Experimental: as §1, §2

P. aeruginosa PAK = assay: microbe, parasite or virus in culture; parameters: MICa: MIC of the antibiotic / MICac: MIC of the antibiotic in the combination: unit not given beside the values
Experimental: as §1, §2

P. aeruginosa NR-31041 = assay: microbe, parasite or virus in culture; parameters: MICa: MIC of the antibiotic / MICac: MIC of the antibiotic in the combination: unit not given beside the values
Experimental: as §1, §2

P. aeruginosa ATCC27853 = assay: microbe, parasite or virus in culture; parameters: MICa: MIC of the antibiotic / MICac: MIC of the antibiotic in the combination: unit not given beside the values
Experimental: as §1, §2

P. aeruginosa HM-214 = conditions: strain HM-214; antibiotic + D-11 (MICb/MICbc 128/4)
Experimental: as §1, §2

[2] = antibiotic alone, unit not given
[3] = with D-11 at MICbc 4, unit not given
[4] = antibiotic + D-11 (MICb/MICbc 128/4)

CO[C@@H]1[C@@H](OC(=O)c2ccc(C)[nH]2)[C@@H](O)[C@H](Oc2ccc3c(O)c(NC(=O)c4ccc(O)c(CC=C(C)C)c4)c(=O)oc3c2Cl)OC1(C)C [Chlorobiocin]
FICI (P. aeruginosa AUMC-Pa-2): 2.063
FICI (P. aeruginosa AUMC-Pa-1): 1.031
MIC (P. aeruginosa PAO1; Pseudomonas aeruginosa, PAO1, 18 h, read-out: MICa: the MIC of antibiotics): 0.5 µM
FICI (P. aeruginosa PAO1; antibiotic + 2 μM D-11): 0.313
FICI (P. aeruginosa PAO1; antibiotic + 4 μM D-11): 0.375
MICac: the MIC for the antibiotic in the combination (P. aeruginosa PAO1; with 2 μM D-11): 0.125 µM
MICac: the MIC for the antibiotic in the combination (P. aeruginosa PAO1; with 4 μM D-11): 0.125 µM
MIC (P. aeruginosa AUMC-Pa-4; Pseudomonas aeruginosa, AUMCPA4, 18 h, read-out: MICa: MIC of the antibiotic): 0.25 µM
FICI (P. aeruginosa AUMC-Pa-4; strain AUMC-Pa-4, antibiotic + D-11 (MICb/MICbc 128/4)): 2.031
MICac: MIC of the antibiotic in the combination (P. aeruginosa AUMC-Pa-4; strain AUMC-Pa-4, with D-11 at MICbc 4, unit not given): 0.5
MIC (P. aeruginosa AUMC-Pa-3; Pseudomonas aeruginosa, AUMCPA3, 18 h, read-out: MICa: MIC of the antibiotic): 0.5 µM
FICI (P. aeruginosa AUMC-Pa-3; strain AUMC-Pa-3, antibiotic + D-11 (MICb/MICbc 128/4)): 1.031
MICac: MIC of the antibiotic in the combination (P. aeruginosa AUMC-Pa-3; strain AUMC-Pa-3, with D-11 at MICbc 4, unit not given): 0.5/0.5
MIC (P. aeruginosa AUMC-Pa-6; Pseudomonas aeruginosa, AUMCPA6, 18 h, read-out: MICa: MIC of the antibiotic): 0.25 µM
FICI (P. aeruginosa AUMC-Pa-6; strain AUMC-Pa-6, antibiotic + D-11 (MICb/MICbc 64/4)): 1.063
MICac: MIC of the antibiotic in the combination (P. aeruginosa AUMC-Pa-6; strain AUMC-Pa-6, with D-11 at MICbc 4, unit not given): 0.25/0.25
FICI (P. aeruginosa AUMC-Pa-5; antibiotic + D-11 (MICb/MICbc 64/4)): 2.063
MICa: MIC of the antibiotic (P. aeruginosa AUMC-Pa-5; [2]): 1
MICac: MIC of the antibiotic in the combination (P. aeruginosa AUMC-Pa-5; [3]): 2
MIC ([1]; read-out: Antibiotic sensibility (MIC) of clinical P. aeruginosa isolate AUMC-Pa-1): 4 µM
MIC ([1]; read-out: Antibiotic sensibility (MIC) of clinical P. aeruginosa isolate AUMC-Pa-2): 0.25 µM
MIC ([1]; read-out: Antibiotic sensibility (MIC) of clinical P. aeruginosa isolate AUMC-Pa-3): 0.5 µM
MIC ([1]; read-out: Antibiotic sensibility (MIC) of clinical P. aeruginosa isolate AUMC-Pa-4): 0.25 µM
MIC ([1]; read-out: Antibiotic sensibility (MIC) of clinical P. aeruginosa isolate AUMC-Pa-5): 1 µM
MIC ([1]; read-out: Antibiotic sensibility (MIC) of clinical P. aeruginosa isolate AUMC-Pa-6): 0.25 µM
MIC ([1]; read-out: Antibiotic sensibility (MIC) of clinical P. aeruginosa isolate HM-214): 1 µM
MIC ([1]; read-out: Antibiotic sensibility (MIC) of clinical P. aeruginosa isolate NR-31040): 1 µM
MIC ([1]; read-out: Antibiotic sensibility (MIC) of clinical P. aeruginosa isolate NR-31041): 1 µM
FICI (P. aeruginosa PA14; [4]): 1.031
MICa: MIC of the antibiotic (P. aeruginosa PA14; [2]): 1/1
MICac: MIC of the antibiotic in the combination (P. aeruginosa PA14; [3]): 1/1
FICI (P. aeruginosa NR-31040; [4]): 1.031
MICa: MIC of the antibiotic (P. aeruginosa NR-31040; [2]): 1/1
MICac: MIC of the antibiotic in the combination (P. aeruginosa NR-31040; [3]): 1/1
MIC (P. aeruginosa PAK; Pseudomonas aeruginosa, 18 h, read-out: MICa: MIC of the antibiotic): 0.5 µM
FICI (P. aeruginosa PAK; strain PAK, antibiotic + D-11 (MICb/MICbc 64/4)): 1.063
MICac: MIC of the antibiotic in the combination (P. aeruginosa PAK; strain PAK, with D-11 at MICbc 4, unit not given): 0.5/0.5
MIC (P. aeruginosa NR-31041; Pseudomonas aeruginosa, NR31041, 18 h, read-out: MICa: MIC of the antibiotic): 1 µM
FICI (P. aeruginosa NR-31041; strain NR-31041, antibiotic + D-11 (MICb/MICbc 64/4)): 0.563
MICac: MIC of the antibiotic in the combination (P. aeruginosa NR-31041; strain NR-31041, with D-11 at MICbc 4, unit not given): 0.5
MIC (P. aeruginosa ATCC27853; Pseudomonas aeruginosa, ATCC27853, 18 h, read-out: MICa: MIC of the antibiotic): 0.5 µM
FICI (P. aeruginosa ATCC27853; strain ATCC27853, antibiotic + D-11 (MICb/MICbc 32/4)): 1.125
MICac: MIC of the antibiotic in the combination (P. aeruginosa ATCC27853; strain ATCC27853, with D-11 at MICbc 4, unit not given): 0.5/0.5
FICI (P. aeruginosa HM-214): 1.031
